This note sets out measurements from patent US12187709B2 (Genentech, Inc., priority 2021, dated 2025).

Assay [1] deals with Human Cbl-b (residues 40-426) (Homo sapiens (Human), UniProt Q13191). Nature of the assay: Cbl-b SPR assay. In kind it is binding. Conditions: for Fold of selectivity: C-cbl SPR Kd vs Cbl-b SPR Kd; for Kd: SPR, 20° C. Put shortly: (§1)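 Binding was measured by SPR and fitted to a 1:1 model from multi-cycle kinetics with double referencing, 6 concentrations in 2-fold dilution. Alternatively, single-cycle titrations up to 500 nM (120 s contact) were fitted with kd fixed from a single-exponential fit of chaser-measured % compound bound versus time.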
Sequence of Human Cbl-b (residues 40-426) (Q13191 40-426): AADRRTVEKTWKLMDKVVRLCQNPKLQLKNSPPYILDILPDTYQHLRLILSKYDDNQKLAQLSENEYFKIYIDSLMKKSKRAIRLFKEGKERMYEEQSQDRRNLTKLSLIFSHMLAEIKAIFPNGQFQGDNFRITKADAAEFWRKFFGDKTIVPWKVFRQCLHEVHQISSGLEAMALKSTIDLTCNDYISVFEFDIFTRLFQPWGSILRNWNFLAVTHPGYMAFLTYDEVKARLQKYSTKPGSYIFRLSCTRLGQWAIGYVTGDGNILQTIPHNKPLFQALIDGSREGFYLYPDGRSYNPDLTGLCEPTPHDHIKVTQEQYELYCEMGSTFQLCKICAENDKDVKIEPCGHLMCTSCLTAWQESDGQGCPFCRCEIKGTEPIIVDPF
Background: SPR reads the build-up and loss of mass on a sensor chip optically.

The target of another assay is Cbl-b (Homo sapiens (Human), UniProt Q13191). The experiment in a line: Cbl-b LCK Ub TR-FRET assay (Cbl-b Lck HTRF). Conditions: for IC50: Cbl-b LCK Ub TR-FRET, Example 121; for (fold-selectivity) Cbl-b and C-Cbl Selectivity: ratio C-cbl Lck HTRF IC50 / Cbl-b Lck HTRF IC50. In kind it is biochemical. The gist of the method: (§2)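 Detection reagents added, brief spin, 20 min RT. IC50 fit normalized to no-LCK (low) and DMSO (high) controls.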
Sequence of Cbl-b (Q13191 40-426): as above

The target of a further assay is c-Cbl (residues 47-435) (Homo sapiens (Human), UniProt P22681). The experiment in a line: c-Cbl SPR assay. In kind it is binding. Conditions: 20° C. Put shortly: as §1
Sequence of c-Cbl (residues 47-435) (P22681 47-435): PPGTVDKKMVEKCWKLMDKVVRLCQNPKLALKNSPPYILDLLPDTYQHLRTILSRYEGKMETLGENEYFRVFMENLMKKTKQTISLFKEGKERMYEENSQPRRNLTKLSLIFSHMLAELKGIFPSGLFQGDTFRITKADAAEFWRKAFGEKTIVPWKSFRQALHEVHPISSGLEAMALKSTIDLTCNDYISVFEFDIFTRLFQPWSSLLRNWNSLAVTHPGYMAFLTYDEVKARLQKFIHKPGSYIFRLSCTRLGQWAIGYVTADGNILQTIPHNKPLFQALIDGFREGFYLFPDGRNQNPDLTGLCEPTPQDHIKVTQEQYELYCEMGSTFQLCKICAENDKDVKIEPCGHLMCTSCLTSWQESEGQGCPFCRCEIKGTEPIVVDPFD
The next assay deals with c-Cbl (Homo sapiens (Human), UniProt P22681). Nature of the assay: C-Cbl LCK Ub TR-FRET assay (C-cbl Lck HTRF). In kind it is biochemical. Put shortly:
as §2

Sequence of c-Cbl (P22681 47-435): as above

One may read the Kd as the equilibrium constant for the complex coming apart. The low end stands for a tighter complex, the high end for a looser complex. In general, IC50 refers to the point on the concentration scale where inhibition reaches its midpoint. A low value points to higher potency. In the case of `CO[C@H]1C[C@](c2cccc(N3Cc4c(cc(CNCC5CC5)cc4C(F)(F)F)C3=O)c2)(c2nncn2C)C1` [Compound 415, 6-(((cyclopropylmethyl)amino)methyl)-2-(3-((1r,3r)-3-methoxy-1-(4-methyl-4H-1,2,4-triazol-3-yl)cyclobutyl)phenyl)-4-(trifluoromethyl)isoindolin-1-one], in assay [1], the Fold of selectivity was determined as 13× and the Kd amounted to 5 nM. In addition, at Cbl-b, the half-maximal inhibitory concentration (IC50) came to 11 nM; the “(fold-selectivity) Cbl-b and C-Cbl Selectivity” value is listed as 4.2x. At c-Cbl (residues 47-435), this compound had an equilibrium dissociation constant (Kd) of 63 nM. The compound also yielded a 50% inhibitory concentration (IC50) against c-Cbl of 48 nM.
Turning to `CO[C@H]1C[C@](c2cccc(N3Cc4c(cc(CNCC5CCC5)cc4C(F)(F)F)C3=O)c2)(c2nncn2C)C1` [Compound 416, 6-(((cyclobutylmethyl)amino)methyl)-2-(3-((1r,3r)-3-methoxy-1-(4-methyl-4H-1,2,4-triazol-3-yl)cyclobutyl)phenyl)-4-(trifluoromethyl)isoindolin-1-one], in assay [1], the Fold of selectivity is given as 13×. Also, the dissociation constant (Kd) in assay [1] came to 0.87 nM; at c-Cbl (residues 47-435), 12 nM. The 50% inhibitory concentration (IC50) at Cbl-b turned out to be 7.5 nM; on c-Cbl, 11 nM. For the same compound, at Cbl-b, the “(fold-selectivity) Cbl-b and C-Cbl Selectivity” value is 1.5x.
Regarding `CO[C@H]1C[C@](c2cccc(N3Cc4c(cc(CN5CCOCC5)cc4C(F)(F)F)C3=O)c2)(c2nncn2C)C1` [Compound 417, 2-(3-((1r,3r)-3-methoxy-1-(4-methyl-4H-1,2,4-triazol-3-yl)cyclobutyl)phenyl)-6-(morpholinomethyl)-4-(trifluoromethyl)isoindolin-1-one], in assay [1], the Fold of selectivity is reported as 7.2× and binding was characterised by a dissociation constant (Kd) of 1100 nM. Further, at Cbl-b, the IC50 stood at 480 nM; the “(fold-selectivity) Cbl-b and C-Cbl Selectivity” value is 6.6x. The same compound registered an equilibrium dissociation constant (Kd) at c-Cbl (residues 47-435) of 8600 nM. Further, the IC50 against c-Cbl was determined as 3200 nM.
`CO[C@H]1C[C@](c2cccc(N3Cc4c(cc(CN5CCCC5)cc4C(F)(F)F)C3=O)c2)(c2nncn2C)C1` [Compound 418, 2-(3-((1r,3r)-3-methoxy-1-(4-methyl-4H-1,2,4-triazol-3-yl)cyclobutyl)phenyl)-6-(pyrrolidin-1-ylmethyl)-4-(trifluoromethyl)isoindolin-1-one] had a Fold of selectivity in assay [1] of 8.7×. The Kd was determined as 140 nM in assay [1] and 1200 nM on c-Cbl (residues 47-435). For the same compound, the 50% inhibitory concentration (IC50) against Cbl-b was found to be 180 nM; against c-Cbl, 1400 nM. Besides, the “(fold-selectivity) Cbl-b and C-Cbl Selectivity” value at Cbl-b was 7.3x.
In assay [1], `CO[C@H]1C[C@](c2cccc(N3Cc4c(cc(CNC(C)C)cc4C(F)(F)F)C3=O)c2)(c2nncn2C)C1` [Compound 419, 6-((isopropylamino)methyl)-2-(3-((1r,3r)-3-methoxy-1-(4-methyl-4H-1,2,4-triazol-3-yl)cyclobutyl)phenyl)-4-(trifluoromethyl)isoindolin-1-one] had a Fold of selectivity of 8.2× and a Kd of 32 nM. For the same compound, on Cbl-b, the IC50 came to 29 nM; the “(fold-selectivity) Cbl-b and C-Cbl Selectivity” value was determined as 6.7x. Besides, the dissociation constant (Kd) on c-Cbl (residues 47-435) was 240 nM. The IC50 against c-Cbl is 190 nM.
Regarding `CO[C@H]1C[C@](c2cccc(N3Cc4c(cc(CNCC(C)C)cc4C(F)(F)F)C3=O)c2)(c2nncn2C)C1` [Compound 421, 6-((isobutylamino)methyl)-2-(3-((1r,3r)-3-methoxy-1-(4-methyl-4H-1,2,4-triazol-3-yl)cyclobutyl)phenyl)-4-(trifluoromethyl)isoindolin-1-one], in assay [1], the Fold of selectivity worked out at 14× and the affinity, expressed as Kd, was 1.7 nM. Further, on Cbl-b, the concentration for half-maximal inhibition (IC50) came out at 6.5 nM; the “(fold-selectivity) Cbl-b and C-Cbl Selectivity” value turned out to be 2.6x. This compound yielded a Kd on c-Cbl (residues 47-435) of 24 nM. This compound displayed a half-maximal inhibitory concentration (IC50) at c-Cbl of 17 nM.
The compound `CO[C@H]1C[C@](c2cccc(N3Cc4c(cc(CN5CC(O)C5)cc4C(F)(F)F)C3=O)c2)(c2nncn2C)C1` [Compound 422, 6-((3-hydroxyazetidin-1-yl)methyl)-2-(3-((1r,3r)-3-methoxy-1-(4-methyl-4H-1,2,4-triazol-3-yl)cyclobutyl)phenyl)-4-(trifluoromethyl)isoindolin-1-one] yielded a Fold of selectivity in assay [1] of 5.3×. The figures for the Kd (in assay [1]; on c-Cbl (residues 47-435)) were 340 nM and 1800 nM, respectively. The 50% inhibitory concentration (IC50) at Cbl-b was 220 nM; at c-Cbl it was 1600 nM. In addition, the “(fold-selectivity) Cbl-b and C-Cbl Selectivity” value on Cbl-b is reported as 7.2x.
Turning to `CO[C@H]1C[C@](c2cccc(N3Cc4c(cc(CN5CC6(CC6)C5)cc4C(F)(F)F)C3=O)c2)(c2nncn2C)C1` [Compound 423, 6-(5-azaspiro[2.3]hexan-5-ylmethyl)-2-(3-((1r,3r)-3-methoxy-1-(4-methyl-4H-1,2,4-triazol-3-yl)cyclobutyl)phenyl)-4-(trifluoromethyl)isoindolin-1-one], in assay [1], the Fold of selectivity is reported as 8.7×. In addition, the dissociation constant (Kd) worked out at 96 nM in assay [1] and 840 nM on c-Cbl (residues 47-435). Further, the values for the half-maximal inhibitory concentration (IC50) against Cbl-b and against c-Cbl were 100 nM and 500 nM, respectively. Besides, the “(fold-selectivity) Cbl-b and C-Cbl Selectivity” value at Cbl-b is on record as 5.0x.
As for `CCC(NCc1cc2c(c(C(F)(F)F)c1)CN(c1cccc([C@]3(c4nncn4C)C[C@H](OC)C3)c1)C2=O)C(=O)OC` (stereo partly drawn) [Compound 425, methyl 2-(((2-(3-((1r,3r)-3-methoxy-1-(4-methyl-4H-1,2,4-triazol-3-yl)cyclobutyl)phenyl)-3-oxo-7-(trifluoromethyl)isoindolin-5-yl)methyl)amino)butanoate], in assay [1], the Fold of selectivity was 11× and the Kd worked out at 170 nM. On Cbl-b, half-maximal inhibition (IC50) required 130 nM; the “(fold-selectivity) Cbl-b and C-Cbl Selectivity” value worked out at 6.8x. This compound displayed a Kd at c-Cbl (residues 47-435) of 1900 nM. At c-Cbl, this compound showed an IC50 of 880 nM.
As for `CO[C@H]1C[C@](c2cccc(N3Cc4c(cc(CNC5CC6(C5)CC6(F)F)cc4C(F)(F)F)C3=O)c2)(c2nncn2C)C1` (stereo partly drawn) [Compound 426, 6-(((1,1-difluorospiro[2.3]hexan-5-yl)amino)methyl)-2-(3-((1r,3r)-3-methoxy-1-(4-methyl-4H-1,2,4-triazol-3-yl)cyclobutyl)phenyl)-4-(trifluoromethyl)isoindolin-1-one], in assay [1], the Fold of selectivity is 15×. For the same compound, the results for the Kd (in assay [1]; on c-Cbl (residues 47-435)) were 6.6 nM and 9.9 nM, respectively. Besides, the IC50 against Cbl-b is 13 nM; against c-Cbl it was 60 nM. Besides, the “(fold-selectivity) Cbl-b and C-Cbl Selectivity” value at Cbl-b was found to be 4.6x.
In assay [1], `CO[C@H]1C[C@](c2cccc(N3Cc4c(cc(CNC5CC6C(C5)C6(F)F)cc4C(F)(F)F)C3=O)c2)(c2nncn2C)C1` (stereo partly drawn) [Compound 427, 6-(((6,6-difluorobicyclo[3.1.0]hexan-3-y)amino)methyl)-2-(3-((1r,3r)-3-methoxy-1-(4-methyl-4H-1,2,4-triazol-3-yl)cyclobutyl)phenyl)-4-(trifluoromethyl)isoindolin-1-one] came in with a Fold of selectivity of 14× and a dissociation constant Kd of 2.6 nM. At Cbl-b, the half-maximal inhibitory concentration (IC50) stood at 7 nM; the “(fold-selectivity) Cbl-b and C-Cbl Selectivity” value is recorded as 3.1x. The compound further registered a Kd at c-Cbl (residues 47-435) of 37 nM. In addition, half-maximal inhibition against c-Cbl (IC50) was put at 22 nM.
As to `C[C@@H](NC1(C)CCC1)c1cc2c(c(C(F)(F)F)c1)CN(c1cccc([C@H](c3nncn3C)C3COC3)c1)C2=O` [Compound 444, 2-(3-((R)-(4-methyl-4H-1,2,4-triazol-3-yl)(oxetan-3-yl)methyl)phenyl)-6-((R)-1-((1-methylcyclobutyl)amino)ethyl)-4-(trifluoromethyl)isoindolin-1-one], in assay [1], the Fold of selectivity stood at 1.8×. Moreover, the Kd in assay [1] turned out to be 0.4 nM; on c-Cbl (residues 47-435), 0.7 nM. For the same compound, the IC50 was 4.1 nM against Cbl-b and 4.5 nM on c-Cbl. Also, the “(fold-selectivity) Cbl-b and C-Cbl Selectivity” value on Cbl-b amounted to 1.1x.
In assay [1], `C[C@H](NC1(C)CCC1)c1cc2c(c(C(F)(F)F)c1)CN(c1cccc([C@H](c3nncn3C)C3COC3)c1)C2=O` [Compound 445, 2-(3-((R)-(4-methyl-4H-1,2,4-triazol-3-yl)(oxetan-3-yl)methyl)phenyl)-6-((S)-1-((1-methylcyclobutyl)amino)ethyl)-4-(trifluoromethyl)isoindolin-1-one] gave a Fold of selectivity of 4.7× and a Kd of 4.8 nM. Moreover, at Cbl-b, the IC50 was determined as 9.7 nM; the “(fold-selectivity) Cbl-b and C-Cbl Selectivity” value was 3.1x. On c-Cbl (residues 47-435), this compound displayed a Kd of 23 nM. For the same compound, half-maximal inhibition against c-Cbl (IC50) was put at 30 nM.
For `Cn1cnnc1[C@]1(c2cccc(N3Cc4c(cc(CNC5(C)CCC5)cc4C(F)F)C3=O)c2)C[C@H](Cl)C1` [Compound 446, 2-(3-((1s,3s)-3-chloro-1-(4-methyl-4H-1,2,4-triazol-3-yl)cyclobutyl)phenyl)-4-(difluoromethyl)-6-(((1-methylcyclobutyl)amino)methyl)isoindolin-1-one], in assay [1], the Fold of selectivity was 5.1× and binding was characterised by a dissociation constant (Kd) of 1.3 nM. Further, on Cbl-b, 6.8 nM corresponded to half-maximal inhibition (IC50); the “(fold-selectivity) Cbl-b and C-Cbl Selectivity” value was 1.7x. The dissociation constant (Kd) on c-Cbl (residues 47-435) was found to be 6.6 nM. This compound also displayed an IC50 against c-Cbl of 11 nM.
Turning to `Cn1cnnc1[C@]1(c2cccc(N3Cc4c(cc(CNC5(C)CCC5)cc4C(F)F)C3=O)c2)C[C@@H](Cl)C1` [Compound 447, 2-(3-((1r,3r)-3-chloro-1-(4-methyl-4H-1,2,4-triazol-3-yl)cyclobutyl)phenyl)-4-(difluoromethyl)-6-(((1-methylcyclobutyl)amino)methyl)isoindolin-1-one], the Fold of selectivity in assay [1] was 5.3×. In addition, the Kd in assay [1] was found to be 0.3 nM; on c-Cbl (residues 47-435), 1.6 nM. The half-maximal inhibitory concentration (IC50) against Cbl-b was 4.5 nM; on c-Cbl, 6.2 nM. The “(fold-selectivity) Cbl-b and C-Cbl Selectivity” value at Cbl-b is 1.4x.
